Publication PMC11989212, “Experimental Conditions to Retrieve Intrinsic Cooperativity α Directly from Single Binding Assay Data Exemplified by the Ternary Complex Formation of FKBP12, MAPRE1 and Macrocyclic Molecular Glues” (International Journal of Molecular Sciences, 2025)
“And” between values parts separate entries of the source, which are not always exact repeats. Equal entries are not always repeated. Where two headings read alike, the source gives them in different places.

Tests used:
FKBP12 [1] = target: T1, FKBP12 (Homo sapiens, UniProt P62942); assay: Spectral shift target engagement assay, binary binding to FKBP12; conditions: 40 nM FKBP12-NTA; for EC50: no MAPRE1, read-out: EC50 of the %Cbound, binary curve; for Kd: KC,1 = EC50 − [Ctot]/2
T1 sequence (P62942 whole entry, species assumed): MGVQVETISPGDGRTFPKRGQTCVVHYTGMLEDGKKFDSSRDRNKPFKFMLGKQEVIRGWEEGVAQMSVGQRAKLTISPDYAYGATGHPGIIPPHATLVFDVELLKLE
Excerpt: (§1) Our method of choice is the spectral shift method, which monitors binding events on the target isothermally and in equilibrium via an environment-sensitive near-infrared fluorophore. In the case of target engagement, either the proximity of the ligand towards the dye or structural changes occurring in the target as a result of binding lead to a change in the chemical environment of the fluorophore. Those changes affect the physiochemical properties of the reporter fluorophore and translate into either blue or red shifts (or peak broadening) of emission peaks upon ligand binding, which can be sensitively monitored by simultaneously recording the fluorescence at two wavelengths (i.e., at 650 nm and 670 nm). Calculating the ratio between the two fluorescence channels then allows to monitor subtle emission shifts that occur as a result of target engagement. Affinity measurements can then be performed by recording the spectral shift as a function of ligand concentration.
(§2) Binding studies through FKBP12: To monitor the binding of R,--SLF-11 by the stronger binding FKBP12 in the absence and in the presence of 10 μM MAPRE1 via %Cbound, binary and %Cbound, ternary, respectively, the concentration of reversibly NTA-labeled FKBP12 was limited to [Ctot] = 40 nM. […] In contrast to the experimental setup in the previous two binding experiments with monitoring through the weaker binding protein MAPRE1, where the applied protein concentrations were optimally chosen, this is not the case for the binding experiment through the stronger binder FKBP12. First of all, the applied excess of T with [Ttot] = 10 μM is roughly 20000-fold off of the proposed 100 times KT,1 threshold, which would correspond to 180 mM. Only under such excess conditions of T can the equilibrium of forming TL under the constraint that all ligand L is bound to T be reached to ensure that [Ltot] approaches the “ligand” concentration [TL]. […] If KC,2 is sufficiently high, the 20 nM deviation to correct for the protein concentration could be neglected. However, the resulting calculated value for KC,2 is 0.023 nM, accounting for the cooperativity α = 10,405 and KC,1 = 234 nM as derived by the MAPRE1 experiment. This value is far below the applied protein concentration of [Ctot] = 40 nM and makes it infeasible to estimate KC,2 from the EC50 of the %Cbound, ternary curve. Consequently, the EC50 shifts, meaning the apparent cooperativity, from monitoring the binding by the stronger binding protein C are diverging from the underlying intrinsic cooperativity α. […] The deviation of calculated (254 nM/24.2 nM = 10.5) and measured apparent cooperativity (254 nM/66 nM = 3.8) can be explained by a negative cooperativity induced by the His6-NTA tag of FKBP12. Studies to lower [Ctot] and identify a better position for the spectral shift tag on FKBP12 are ongoing (Figure 6a).
(§3) His-tagged FKBP12 was labeled using the His-Tag Labeling Kit RED-tris-NTA 2nd Generation (MO-L018; NanoTemper Technologies GmbH). The affinity between NTA dye and the His-tag of FKBP12 was determined as 7 nM. MAPRE1 was labeled using the Protein Labeling Kit RED-NHS 2nd Generation (MO-L011; NanoTemper Technologies GmbH). In brief, 10 µM of MAPRE1 was incubated with a 3-fold molar excess of fluorophore for 30 min. The unreacted fluorophore was removed by performing a size exclusion purification (B-column). Collecting the protein fraction yielded 1.8 µM labeled MAPRE1, with a degree of labeling of 0.8, as determined on a Nanodrop.
(§4) A 1:2 dilution series of all compounds (starting from the 10 mM stock concentration) was prepared in pure DMSO. Each concentration was diluted 25-fold with assay buffer (20 mM HEPES, pH 7.4, 150 mM NaCl, 1 mM DTT (all from Carl Roth, Karlsruhe, Germany), and 0.01% Pluronic F-127 (Sigma Aldrich, Taufkirchen, Germany)). Next, 10 µL from each of the prepared ligand dilutions was transferred into an empty well on a Dianthus Microwell Plate (DI-P001A). […]

[2] = target: FKBP12 in the presence of MAPRE1 (Homo sapiens, UniProt P62942+Q15691); assay: Spectral shift target engagement assay, binding to FKBP12 in the presence of 10 μM MAPRE1 (ternary)
FKBP12 in the presence of MAPRE1, sequence (P62942 whole entry, one chain of several): as the sequence (P62942 whole entry, species assumed) above
Excerpt: as §1, §2, §3, §4

[3] = target: T2, MAPRE1 in the presence of FKBP12 (Homo sapiens, UniProt P62942+Q15691); assay: Spectral shift target engagement assay, binding to MAPRE1 in the presence of 10 μM FKBP12 (ternary); conditions: for EC50: 5 nM MAPRE1-NHS, 10 μM FKBP12, read-out: EC50 of the %Tbound, ternary curve; for Ratio [Ctot]/KC,1: [Ctot] = 10 μM FKBP12; for 100 × (EC50 %Tbound ternary − 0.5 [Ttot] − KT,2)/KT,2: difference between EC50 of the %Tbound, ternary curve and KT,2; for 100 × (EC50 %Tbound ternary − 0.5 [Ttot] − KT,2)/KT,2 / Intrinsic cooperativity α: [Ttot] = 5 nM; for Intrinsic cooperativity α: from KC,1, KT,1 and EC50 of the %Tbound, ternary curve with the mathematical model, [Ctot] = 10,000 nM; for Kd: ternary Kd, model-based ([CL] at [Ltot] = EC50), read-out: KT,2
T2 construct: His-tag (N)
T2 sequence (P62942 whole entry, one chain of several): as the sequence (P62942 whole entry, species assumed) above
Excerpt: as §1
(§5) Binding study through MAPRE1: MAPRE1 was labeled via lysines using an NHS-conjugated dye. The final concentration of MAPRE1NHS (referring to [Ttot]) was 5 nM. Compounds could be titrated up to a concentration of 200 μM (referring to [Ltot]). […] However more accuracy could only be achieved at higher ligand concentrations—ideally at full target saturation. However, this was experimentally infeasible due to assay conditions (i.e., the requirement of maintaining a certain DMSO concentration or avoiding solubility issues of the ligand). Although the determined KT,1 values of binding to MAPRE1 are only approximations, their relative ranking reflects the underlying differences in the affinity of the ligands L to MAPRE1. Performing these experiments in duplicates confirmed the high signal-to-noise ratio, i.e., there was no significant deviation between the two curves, indicating a high accuracy of the interpolated EC50 values. Due to the low [Ttot] = 5 nM, this value coincides with KT,1 (1.8 mM − 0.005 mM/2 ≈ 1.8 mM). […] Consequently, KT,2 corresponds to 173 nM and not 177.5 nM.
as §3
(§6) A 1:2 dilution series of all compounds (starting from the 10 mM stock concentration) was prepared in pure DMSO. Each concentration was diluted 25-fold with assay buffer (20 mM HEPES, pH 7.4, 150 mM NaCl, 1 mM DTT (all from Carl Roth, Karlsruhe, Germany), and 0.01% Pluronic F-127 (Sigma Aldrich, Taufkirchen, Germany)). Next, 10 µL from each of the prepared ligand dilutions was transferred into an empty well on a Dianthus Microwell Plate (DI-P001A). Another 10 µL of 2-fold concentrated labeled protein (either in the absence or the presence of 20 µM counter protein, both in assay buffer then yielded the final assay concentrations. Interaction measurements were prepared in duplicates for each condition. For binary interactions of compounds with MAPRE1, a final target concentration of 5 nM and a highest ligand concentration of 50 µM was prepared. For ternary interactions of compounds and MAPRE1 in the presence of 10 µM unlabeled FKBP12, the highest ligand concentration was increased to 200 µM, the highest concentration achievable while maintaining a constant 2% DMSO concentration. For all interactions measured via FKBP12, the target was prepared at a final concentration of 40 nM, supplemented with 5 nM NTA fluorophore. […]

[4] = system: FKBP12:R,S-SLF-X:MAPRE1 ternary complex; design: method as in PMID 40059881; conditions: TR-FRET proximity assay, reported earlier; cited from earlier work
FKBP12 [5] = target: T1, FKBP12; design: method as in PMID 40059881; conditions: TR-FRET competitive binding assay from previous work, read-out: EC50_FKBP12, cited from earlier work
MAPRE1 [6] = target: T3, MAPRE1 (Homo sapiens, UniProt Q15691); design: method as in PMID 40059881; conditions: previous NMR studies; read-out: affinity for MAPRE1; cited from earlier work
T3 construct: His-tag (N)
T3 sequence (Q15691 1-268): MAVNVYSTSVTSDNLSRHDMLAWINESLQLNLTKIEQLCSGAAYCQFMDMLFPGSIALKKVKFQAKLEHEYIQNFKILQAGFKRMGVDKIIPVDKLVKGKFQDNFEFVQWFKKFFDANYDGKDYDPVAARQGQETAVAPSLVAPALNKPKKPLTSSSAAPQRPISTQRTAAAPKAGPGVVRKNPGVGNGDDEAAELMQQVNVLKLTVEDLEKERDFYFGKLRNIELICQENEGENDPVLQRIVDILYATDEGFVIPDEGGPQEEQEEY

MAPRE1 [7] = target: T3, MAPRE1; assay: Spectral shift target engagement assay, binary binding to MAPRE1; conditions: 5 nM MAPRE1-NHS, interpolated; for EC50: no FKBP12, read-out: EC50 of the %Tbound, binary curve; for Kd: approximation, read-out: Spectral Shift Binary MAPRE1 KT,1
Excerpt: as §1, §5, §3, §6

[8] = target: His-tagged FKBP12, labeled with RED-tris-NTA dye (UniProt P62942); assay: other fluorescence titration; spectral shift, no compound: 40 nM labeled FKBP12 vs. 10,000 nM MAPRE1
His-tagged FKBP12, labeled with RED-tris-NTA dye, sequence (P62942 whole entry): as the sequence (P62942 whole entry, species assumed) above

[9] = 40 nM FKBP12-NTA, 10 μM MAPRE1, read-out: EC50 of the %Cbound, ternary curve (measured)
[10] = calculated with the model using α from MAPRE1 binding, read-out: calc EC50 of the %Cbound, ternary curve

| Molecule | EC50 (FKBP12 [1]) [µM] | Kd (FKBP12 [1]) [µM] | EC50 [2, 9] [µM] | EC50 [3] [µM] | Ratio [Ctot]/KC,1 [3] | 100 × (EC50 %Tbound ternary − 0.5 [Ttot] − KT,2)/KT,2 [3] [%] | Intrinsic cooperativity α [3] | Kd [3] | TR-FRET Recruitment Assay (%Amax) [4] [%] | EC50 [2, 10] [µM] | EC50 (FKBP12 [5]) [µM] | Kd (MAPRE1 [6]) [µM] | EC50 (MAPRE1 [7]) [µM] | Kd (MAPRE1 [7]) [µM] | EC50 (FKBP12 [5]; listed as R,R-SLF-1d) [µM] | Kd [8] [µM] |
| --- | --- | --- | --- | --- | --- | --- | --- | --- | --- | --- | --- | --- | --- | --- | --- | --- |
| C=C1CCN2C(=O)COc3cccc(c3)C(CCc3ccc(OC)c(OC)c3)OC(=O)C3CCCCN3C(=O)C(=O)C(C)(C)COC(=O)C(C)(C)NC(=O)C2C1 (stereo not drawn) [R,--SLF-10] | 0.128 | 0.108 | 0.04 | 0.377 | 93 | 1.2 | 5405 | 0.37 µM | 135 |  |  |  |  |  |  |  |
| C=C1CCN2C(=O)COc3cccc(c3)C(CCc3ccc(OC)c(OC)c3)OC(=O)C3CCCCN3C(=O)C(=O)C(C)(C)COC(=O)C3(CC3)NC(=O)C2C1 (stereo not drawn) [R,--SLF-11] | 0.254 | 0.234 | 0.066 | 0.18 | 41 | 2.6 | 10,405 | 0.173 µM | 350 |  |  |  |  |  |  |  |
| C=C1CCN2C(=O)COc3cccc(c3)C(CCc3ccc(OC)c(OC)c3)OC(=O)C3CCCCN3C(=O)C(=O)C(C)(C)COC(=O)C(C)NC(=O)C2C1 (stereo not drawn) [R,S-SLF-1a] | 0.041 | 0.021 | 0.045 | 1.03 | 476 | 0.3 | 1951 | 1.02 µM | 51 | 0.02 | 0.23 | > 250 |  |  |  |  |
| C=C1CCN2C(=O)COc3cccc(c3)C(CCc3ccc(OC)c(OC)c3)OC(=O)C3CCCCN3C(=O)C(=O)C(C)(C)COC(=O)C(CC)NC(=O)C2C1 (stereo not drawn) [R,S-SLF-3] | 0.086 | 0.066 | 0.049 | 0.827 | 152 | 0.8 | 2200 | 0.818 µM | 93 | 0.025 |  |  | > 200 | > 200 |  |  |
| C=C1CCN2C(=O)COc3cccc(c3)C(CCc3ccc(OC)c(OC)c3)OC(=O)C3CCCCN3C(=O)C(=O)C(C)(C)COC(=O)C(CO)NC(=O)C2C1 (stereo not drawn) [R,S-SLF-6] | 0.065 | 0.045 | 0.024 | 0.114 | 222 | 0 | 4484 | ~0.111 µM and 0.111 µM | 255 | 0.021 |  |  | > 200 | > 200 |  |  |
| C=C1CCN2C(=O)COc3cccc(c3)C(CCc3ccc(OC)c(OC)c3)OC(=O)C3CCCCN3C(=O)C(=O)C(C)(C)COC(=O)C(C(F)(F)F)NC(=O)C2C1 (stereo not drawn) [R,S-SLF-8] | 0.129 | 0.109 | 0.065 | 1.07 | 92 | 1.1 | 1509 | 1.06 µM | 27 | 0.031 |  |  | > 200 | > 200 |  |  |
| C=C1CCN2C(=O)COc3cccc(c3)C(CCc3ccc(OC)c(OC)c3)OC(=O)C3CCCCN3C(=O)C(=O)C(C)(C)COC(=O)C(CCOC)NC(=O)C2C1 (stereo not drawn) [R,S-SLF-9] |  |  |  |  |  |  |  |  | 51 |  |  |  |  |  |  |  |
| C=C1CCN2C(=O)COc3cccc(c3)C(CCc3ccc(OC)c(OC)c3)OC(=O)C3CCCCN3C(=O)C(=O)C(C)(C)COC(=O)C(C)NC(=O)C2C1 (stereo not drawn) [S,S-SLF-1d] | 0.027 | 0.007 | 0.029 | > 1400 | 1428 and 1429 |  | No positive cooperativity |  | 0 |  |  |  | > 200 | > 200 | 0.72 |  |
| unlabeled MAPRE1 (from UniProt Q15691 1-268) (natural protein) |  |  |  |  |  |  |  |  |  |  |  |  |  |  |  | > 100 |
